# According to PMC4335872, “Pharmacokinetic-Pharmacodynamic Analysis of Spiroindolone Analogs and KAE609 in a Murine Malaria Model” (Antimicrobial Agents and Chemotherapy, 2015):
# Columns and labels:
# [1] = system: P. berghei; test: Dose fractionation and PK-PD analysis of KAE609 in the P. berghei malaria mouse model; assay type: in vivo, NMRI mice; details: for Parasitemia (mean ± SD): 48 h posttreatment; for %T>TRE: simulated, 48-h period
# Method: The total daily doses were either administered as a single dose (24 h postinfection) or divided into two oral doses (BID) or three oral doses (TID) per day (Table 1). Four mice were used for each regimen, with the control mice receiving vehicle only. Parasitemia, expressed as parasitized red blood cells (pRBCs) of >100 RBCs, was determined at 72 h postinfection (48 h after the initiation of treatment with KAE609) using standard flow cytometry techniques ([39]).
# The concentration of compounds that inhibited 99% of P. berghei growth (IC99) was used to calculate the threshold (TRE = 2 × IC99) and the PK-PD indices. […] The Cmax/TRE, AUC0–48/TRE, and %T>TRE at different doses and dosing regimens were calculated using the Berkeley Madonna Software (version 8.0.1) (Berkeley Madonna, University of California, Berkeley, Berkeley, CA).
# The relationship between PK-PD indices (log-transformed Cmax/TRE, log-transformed AUC0–48/TRE, and %T>TRE) and log-transformed parasitemia was analyzed by nonlinear regression analysis. An exploratory analysis of the PK-PD data was done using various models, such as maximum effect (Emax), sigmoid Emax, and with and without slope. A sigmoidal dose-response (variable-slope) model without constants was fitted to the data. GraphPad Prism version 5.02 for Windows (GraphPad Software, San Diego, CA, USA) was the software used for this analysis. The model choice was guided initially by a visual inspection of the y-by-x plots and then by correlation analysis and by evaluating the standard error of the estimate. The parasitemia (P) measures at any value of each different PK-PD index are expressed in equation 1, where EZ50 (otherwise referred to as EC50) is the value of the specific PK-PD index (Cmax/TRE, AUC0–48/TRE, and %T>TRE, respectively) required to produce 50% of the maximal effect, x is any of the PK-PD indices, and Pmax, Pmin, and s are as described previously. The values of x corresponding to the maximum reduction in parasitemia were derived by interpolation based on equation 1.
# [2] = system: P. berghei GFP ANKA malaria strain PbGFPCON; parameters: method as in PMID 20813948; details: cited from earlier work
# [3] = Oral PK and PK modeling of KAE609 in NMRI mice; assay type: in vivo, female NMRI mice; details: for AUC(0-inf) / Cmax: NMRI, 5.3 mg/kg, single oral dose 5.3 mg/kg
# Method: For the in vivo PK studies, female NMRI mice (specific pathogen free) were obtained from Janvier, Le Genest-Saint-Isle, France. To investigate the influence of the disease status on the pharmacokinetics, a single oral dose (5.3 mg/kg) of KAE609 was given to both the infected and uninfected NMRI mice, and the PK parameters were determined. The infected mice were dosed at 24 h postinfection. The formulation, sampling times (0.25, 0.5, 1, 2, 4, 8, 24, and 48 h postdose), extraction, and analysis were similar to those in the method described above.
# Population PK modeling of the concentration-time data of KAE609 in mice was performed using naive pooling without intersubject variability using NONMEM version VI 2.0. A two-compartment pharmacokinetic model with first-order absorption and nonlinear elimination was built to fit the concentration-time data of KAE609 generated in (infected and healthy) NMRI mice at 5.3 mg/kg. In the model, clearance (CL) was described by equation 2, where Cp is compound plasma concentration, the maximum metabolic rate (Vmax)/Km ratio is the maximal clearance achievable when Cp is ≪Km, and Km corresponds to the compound concentration at which the clearance reached 50% of the Vmax/Km. The primary model parameters derived were plasma clearance (CL) (in liters/h/kg), intercompartmental clearance (Q) (in liters/h/kg), central and peripheral volume of distribution (Vc and Vp, respectively) (in liters/kg), and the absorption rate constant (Ka) (in h^−1). The diagnostic plots were analyzed for closeness to and randomness along the line of identity on the observed versus predicted concentration plot, as well as randomness along the weighted residual zero line on the predicted concentration or time. […] Based on the estimated primary model parameters (Vmax, Km, Vc, Vp, Q, and Ka), the plasma concentration-time profiles and secondary pharmacokinetic parameters, such as Cmax, AUC at different doses, and dosing regimens, were simulated using the Berkeley Madonna software (version 8.0.1) (Berkeley Madonna, University of California, Berkeley, CA. 2 CL=Vmax/(Km+Cp)
# [4] = interpolated from PK-PD model, 48 h observation
# [5] = total dose 0.5 mg/kg p.o. as 1 x 0.5 mg/kg
# [6] = total dose 0.5 mg/kg p.o. as 2 x 0.25 mg/kg (every 12 h)
# [7] = total dose 0.5 mg/kg p.o. as 3 x 0.17 mg/kg (every 8 h)
# [8] = total dose 1 mg/kg p.o. as 1 x 1 mg/kg
# [9] = total dose 1 mg/kg p.o. as 2 x 0.5 mg/kg (every 12 h)
# [10] = total dose 1 mg/kg p.o. as 3 x 0.33 mg/kg (every 8 h)
# [11] = total dose 2 mg/kg p.o. as 1 x 2 mg/kg
# [12] = total dose 2 mg/kg p.o. as 2 x 1 mg/kg (every 12 h)
# [13] = total dose 2 mg/kg p.o. as 3 x 0.67 mg/kg (every 8 h)
# [14] = total dose 4 mg/kg p.o. as 1 x 4 mg/kg
# [15] = total dose 4 mg/kg p.o. as 2 x 2 mg/kg (every 12 h)
# [16] = total dose 4 mg/kg p.o. as 3 x 1.33 mg/kg (every 8 h)
# [17] = total dose 8 mg/kg p.o. as 1 x 8 mg/kg
# [18] = total dose 8 mg/kg p.o. as 2 x 4 mg/kg (every 12 h)
# [19] = total dose 8 mg/kg p.o. as 3 x 2.67 mg/kg (every 8 h)
# [20] = female, mouse, plasma, po, infected NMRI mice
# [21] = female, mouse, plasma, po, uninfected NMRI mice
# [22] = two-compartment model, NMRI mice 5.3 mg/kg p.o.
smiles,measurement,setting,value
C[C@H]1Cc2c([nH]c3cc(Cl)c(F)cc23)[C@@]2(N1)C(=O)Nc1ccc(Cl)cc12 [(+)-7 (KAE609)],Type of killing suggested by PK-PD analysis,[1]; P. berghei malaria mouse model,time-dependent rather than concentration-dependent killing
same,AUC for reduction in parasitemia in the P. berghei murine malaria model,[1]; TRE = 48 ng/ml,"28,176 ng · h/ml"
same,Cmax for reduction in parasitemia in the P. berghei murine malaria model,[1]; TRE = 48 ng/ml,"1,440 ng/ml"
same,Cmax needed to reduce parasitemia by 50% in vivo,[1]; as derived from Cmax/TRE (Table 5),260 ng/mL
same,AUC0–48/TRE ratio likely to result in the maximum reduction in parasitemia,[1]; [4],587
same,Cmax/TRE ratio likely to result in the maximum reduction in parasitemia,[1]; [4],30
same,T>TRE likely to result in the maximum reduction in parasitemia,[1]; [4],100%
same,"Hill slope, value (95% CI), PK-PD model for %T>TRE",[1]; parasitemia vs %T>TRE,−0.031 (−0.037 to −0.024)
same,"Pmax, value (95% CI), PK-PD model for %T>TRE",[1]; parasitemia vs %T>TRE,53.09 (32.28 to 87.50)
same,"Pmin, value (95% CI), PK-PD model for %T>TRE",[1]; parasitemia vs %T>TRE,0.15 (0.12 to 0.20)
same,"Hill slope, value (95% CI), PK-PD model for AUC0–48/TRE",[1]; parasitemia vs AUC0–48/TRE,−1.63 (−2.04 to −1.22)
same,"Pmax, value (95% CI), PK-PD model for AUC0–48/TRE",[1]; parasitemia vs AUC0–48/TRE,32.66 (25.06 to 42.56)
same,"Pmin, value (95% CI), PK-PD model for AUC0–48/TRE",[1]; parasitemia vs AUC0–48/TRE,0.13 (0.09 to 0.20)
same,Parasitemia (mean ± SD),[1]; [5],28.82 ± 4.49%
same,%T>TRE,[1]; [5],4.3%
same,Parasitemia (mean ± SD),[1]; [6],38.28 ± 2.95%
same,%T>TRE,[1]; [6],0%
same,Parasitemia (mean ± SD),[1]; [7],35.37 ± 5.32%
same,%T>TRE,[1]; [7],0%
same,Parasitemia (mean ± SD),[1]; [8],17.82 ± 3.05%
same,%T>TRE,[1]; [8],10.7%
same,Parasitemia (mean ± SD),[1]; [9],18.19 ± 6.81%
same,%T>TRE,[1]; [9],8.8%
same,Parasitemia (mean ± SD),[1]; [10],20.31 ± 5.71%
same,%T>TRE,[1]; [10],0%
same,Parasitemia (mean ± SD),[1]; [11],5.64 ± 1.69%
same,%T>TRE,[1]; [11],23.0%
same,Parasitemia (mean ± SD),[1]; [12],6.48 ± 3.94%
same,%T>TRE,[1]; [12],22.7%
same,Parasitemia (mean ± SD),[1]; [13],10.83 ± 4.67%
same,%T>TRE,[1]; [13],22.3%
same,Parasitemia (mean ± SD),[1]; [14],0.63 ± 0.57%
same,%T>TRE,[1]; [14],54.5%
same,Parasitemia (mean ± SD),[1]; [15],0.43 ± 0.38%
same,%T>TRE,[1]; [15],56.1%
same,Parasitemia (mean ± SD),[1]; [16],0.55 ± 0.28%
same,%T>TRE,[1]; [16],57.3%
same,Parasitemia (mean ± SD),[1]; [17],0.15 ± 0.03%
same,%T>TRE,[1]; [17],99.9%
same,Parasitemia (mean ± SD),[1]; [18],0.18 ± 0.04%
same,%T>TRE,[1]; [18],99.8%
same,Parasitemia (mean ± SD),[1]; [19],0.16 ± 0.02%
same,%T>TRE,[1]; [19],99.8%
same,Single oral dose giving 50% reduction in parasitemia,[2]; P. berghei malaria mouse model,1.2 mg/kg
same,Single oral dose giving 90% reduction in parasitemia,[2]; P. berghei malaria mouse model,2.7 mg/kg
same,Single oral dose giving 99% reduction in parasitemia,[2]; P. berghei malaria mouse model,5.3 mg/kg
same,Cure rate,[2]; single dose of 30 mg/kg,50%
same,Animals cured,[2]; single oral dose of 100 mg/kg,100%
same,Cure,[2]; thrice-daily oral doses of 50 mg/kg,complete cure
same,Fold higher Cmax and exposure in NMRI mice than in CD-1 mice,[3]; comparable oral dose (5 mg/kg),4 fold
same,AUC(0-inf),[3]; [20],12600 ng·h/mL
same,Cmax,[3]; [20],960 ng/mL
same,AUC(0-inf),[3]; [21],13200 ng·h/mL
same,Cmax,[3]; [21],1010 ng/mL
same,Km,"[3]; female, mouse, plasma, po, two-compartment model, nonlinear elimination, NMRI mice 5.3 mg/kg p.o.",0.0341 µg/mL
same,Difference in PK profiles between infected and uninfected NMRI mice,[3]; oral 5.3 mg/kg,No significant difference
same,Ka (absorption rate constant),[3]; [22],1.78 h⁻¹
same,Q (intercompartmental clearance),[3]; [22],10.2 mL/min/kg
same,Vc (central volume of distribution),[3]; [22],4.4 L/kg
same,Vp (peripheral volume of distribution),[3]; [22],5.1 L/kg
same,Vmax,"[3]; two-compartment model, nonlinear elimination, NMRI mice 5.3 mg/kg p.o.",143 µg/h/kg
